Legend:
[1] = molar heat capacity at constant pressure; mn = molality of the nth substance listed, in mol/kg; conditions: 298.15 K, 101 kPa, Liquid, Flow calorimetry
[2] = mn = molality of the nth substance listed, in mol/kg; conditions: 101 kPa, Liquid; for mass density: Vibrating tube method

Cc1cn([C@H]2CC(O)[C@@H](CO)O2)c(=O)[nH]c1=O (stereo not given in full) [thymidine] + O
[1]
Conditions | molar heat capacity at constant pressure [J/K/mol]
m1 = 0.02897 | 450.9
m1 = 0.04107 | 449.7
m1 = 0.05418 | 447.6
m1 = 0.06918 | 452.8
m1 = 0.08071 | 452
m1 = 0.0935 | 452.9
m1 = 0.1078 | 453.3
m1 = 0.122 | 453.8
m1 = 0.1336 | 455.5

[2]
Conditions | mass density [kg/m3] | speed of sound [m/s]
288.15 K, m1 = 0.02897 | 1001.3 | –
288.15 K, m1 = 0.04107 | 1002.22 | –
288.15 K, m1 = 0.05418 | 1003.2 | –
288.15 K, m1 = 0.06905 | 1004.3 | –
288.15 K, m1 = 0.08071 | 1005.18 | –
288.15 K, m1 = 0.0935 | 1006.13 | –
288.15 K, m1 = 0.1077 | 1007.17 | –
288.15 K, m1 = 0.122 | 1008.22 | –
288.15 K, m1 = 0.1336 | 1009.07 | –
298.15 K, m1 = 0.02049 | 998.571 | 1498.1
298.15 K, m1 = 0.03005 | 999.279 | 1498.8
298.15 K, m1 = 0.03798 | 999.866 | 1499.4
298.15 K, m1 = 0.04153 | 1000.13 | 1499.6
298.15 K, m1 = 0.04752 | 1000.57 | 1500
298.15 K, m1 = 0.05597 | 1001.19 | 1500.6
298.15 K, m1 = 0.06455 | 1001.82 | 1501.2
298.15 K, m1 = 0.0743 | 1002.53 | 1501.9
298.15 K, m1 = 0.08286 | 1003.15 | 1502.4
298.15 K, m1 = 0.09266 | 1003.86 | 1503.1
303.15 K, m1 = 0.02802 | 997.714 | –
303.15 K, m1 = 0.03767 | 998.422 | –
303.15 K, m1 = 0.04737 | 999.127 | –
303.15 K, m1 = 0.05795 | 999.898 | –
303.15 K, m1 = 0.06905 | 1000.7 | –
303.15 K, m1 = 0.08175 | 1001.62 | –
303.15 K, m1 = 0.09431 | 1002.52 | –
303.15 K, m1 = 0.1077 | 1003.49 | –
303.15 K, m1 = 0.1198 | 1004.35 | –
313.15 K, m1 = 0.03767 | 994.944 | –
313.15 K, m1 = 0.04737 | 995.64 | –
313.15 K, m1 = 0.05795 | 996.397 | –
313.15 K, m1 = 0.0689 | 997.176 | –
313.15 K, m1 = 0.08175 | 998.094 | –
313.15 K, m1 = 0.09431 | 998.979 | –
313.15 K, m1 = 0.1079 | 999.926 | –
313.15 K, m1 = 0.1198 | 1000.77 | –
